The values that follow come from paper PMC7689490, “Designed CXCR4 mimic acts as a soluble chemokine receptor that blocks atherogenic inflammation by agonist-specific targeting” (Nature Communications, 2020).

Each structure is given as a SMILES string. “And” between values parts separate entries of the source, which are not always exact repeats. Equal entries are not always repeated. “Also recorded” adds a separate entry of the source.

The test system of data set [1] is carotid arteries of Apoe−/− mice. Briefly: Leukocyte adhesion in ex vivo mounted atherosclerotic carotid arteries under flow (MPM). Further details: species or system mouse. On the procedure: Monocyte adhesion experiments in atherosclerotic carotid arteries under physiological flow conditions ex vivo have been established[14],[75] and were performed by a slight modification of this procedure. Briefly, seven-week-old Apoe^−/− mice were fed a Western-type HFD (0.2% cholesterol) for 12 weeks. […] On day 3, arteries were prepared and mounted into an arteriograph chamber. […] Mouse leukocytes isolated from the bone marrow of msR4M-L1- or vehicle-treated atherogenic Apoe^−/− mice were stained with fluorescent Green CMFDA or Red CMPTX (Thermo Fisher Scientific). […] The red- and green-stained cell pools were mixed at a 1:1 ratio and 3 × 10^6 cells in 6 mL perfused into the artery of msR4M-L1- or vehicle-treated mice, respectively. Arteries were scanned by MPM using a multispectral TCS SP8 DIVE instrument with filter-free 4TUNE NDD detection module (Leica) and the number of adherent and transmigrated leukocytes determined by scanning multiphoton excitation. Vessel structure (and plaques) were visualized by second harmonic generation (SHG). Image acquisition, visualization, and processing was performed using the LAS X SP8 software package with LAS X 3D visualization and analysis (Leica) and LAS X HyVolution 2 packages from Leica/SVI Huygens, (Laapersveld, NL).

For data set [2], the system named is human monocyte-derived macrophages. As to the kind of experiment: LDLR and CXCR4 cell surface levels in macrophages (flow cytometry, Reviewer-only Figure 4). The format is cell-based. On the procedure:
crosstalk, or might even imply that CXCR4 and LDLR colocalize/complex and are subjected to a joint internalization event.
We feel that these studies warrant further in-depth (and mechanistic) exploration, which are […]
in the manuscript. We have therefore prepared them as Reviewer-only Figure 4 below.
Supplementary part of the manuscript, we are happy to do so. […]
expression and endocytosis in human monocyte-derived macrophages. LDLR and CXCR4 cell surface levels were measured by flow cytometry. Experiments were performed in the presence of LDL and the […]
containing 100µg/mL penicillin, 100 µg/mL streptomycin, and 0.2% BSA) for 15 min at 37°C and subsequently exposed to LDL (25 µg/mL) for 15 min. After washing with PBS, cells were collected and incubated with anti-hLDLR-APC (1:100, R&D Systems, FAB2148A) and anti-CXCR4-PE (1:100, R&D Systems, FAB170P) at 4°C for 1 h. MIF stimulation enhances LDL-triggered internalization of LDLR and […]
The data shown are from one of two experiments
MIF dependent adhesion can be blocked, it is unclear whether MIF dependent adhesion to TNF-activated (since this stimulus seems relevant in in vivo settings) endothelial cells can be […]
Response: Thank you for this important point. […]
experiment and now include static adhesion data using TNF-primed endothelial cells in the […]

The next data set relates to MonoMac-6 / HAoEC. Briefly: MIF-induced MonoMac-6 adhesion to HAoECs under flow. The class given is cell-based, human. As for the experimental part: HAoECs were seeded at a density of 60,000 cells per channel in collagen-coated Ibidi µ-Slides I 0.8 and incubated for 20–24 h until monolayers were confluent. […] Prior to the flow assay, MgSO4 and CaCl2 were added to MonoMac6 suspensions at a final concentration of 1 mM. Flow channels containing HAoEC monolayers were then perfused with MonoMac6 cells at a shear rate of 1.5 dyn cm^−2 for 10 min at 37 °C using the Ibidi Pump System/Perfusion Set. For quantification of adherent monocytes, images from four positions per channel were acquired using a Leica DMi8 inverted microscope (20 x objective) and quantified with ImageJ.

For the next data set, the system named is human CXCR4. Briefly: MIF-triggered CXCR4-specific signaling in yeast (lacZ read-out). The format is cell-based. The conditions noted are these: co-incubation with MIF. On the procedure:
Briefly, yeast transformants stably expressing human CXCR4 were grown overnight at 30 °C in yeast nitrogen base selective medium (Formedium, UK). Cells were diluted to an OD600 of 0.2 and grown to an OD600 of 0.3–0.6. […] OD600 was measured and activation of CXCR4 signaling quantified by β-galactosidase activity using a commercial BetaGlo Kit (Promega, Mannheim, Germany).

A further data set is described as follows: in vivo. The conditions noted are these: C57BL/6, mouse, ip, 50 ug per mouse.
For data set [3], the system named is circulating inflammatory cytokines. As to the kind of experiment: Plasma cytokine array in treated Apoe−/− mice. The class given is in vivo, mouse. The conditions noted are these: reductions for IL-1α, IL-16, TNF-α, CXCL13/BLC; 6 vs 6 mice.
Description: Plasma samples were diluted (1:10) in array buffer; incubated with antibody detection cocktail for 1 h at RT, exposed to the blocked membranes (overnight, 4 °C), membranes washed and incubated with streptavidin-HRP conjugate working solution (30 min, RT). Membranes were developed with Chemi-Reagent Mix and analyzed by Odyssey® Fc imager. The average signal (mean signal intensity) of duplicate spots was quantified by ImageJ.
For data set [4], the system named is primary human monocyte-derived macrophages. Briefly: MIF-mediated DiI-LDL uptake / foam cell formation. The class given is cell-based. As to conditions: 80 nM MIF. On the procedure: After washing with imaging solution (MEM without phenol red containing 30 mM HEPES, 0.5 g/L NaHCO3, pH 7.4, and 0.2% BSA), cells were exposed to 50 µg mL^−1 1,1′-dioctadecyl-3,3,3′3′-tetramethylindocarbocyanine-labeled oxidized LDL (DiI-oxLDL) or DiI-labeled native LDL (DiI-LDL) for 30 min at 4 °C, followed by incubation at 37 °C for 20 min. Cells were washed with ice-cold imaging solution (pH 3.5), fixed, and counter-stained with Hoechst 33258.

The subject of the next data set is Apoe−/− mice on HFD. As to the kind of experiment: In vivo model of atherosclerosis (lesions, lesional macrophages, tolerability). On the procedure: Seven-eight-week-old female Apoe^−/− mice were randomly divided into two groups of 11–12 mice each and both groups put on a Western-type HFD (0.21% cholesterol) for 4.5 weeks. Mice develop early-to-intermediate atherosclerotic lesions in this model. […] At the end of the experiment, mice were sacrificed, blood collected by cardiac puncture and saved for blood cell and lipid measurements and mice transcardially perfused with saline. Hearts, proximal aortas and carotid arteries were prepared and fixed for plaque morphometry and lesion analysis.
Quantification of plaques and vessel morphometry (ORO and H&E staining). Cut heart tissues containing aortic root were embedded in Tissue Tek optimum cutting temperature (OCT) substance (Sakura Finetek, Osaka, Japan) and frozen at −80 °C. Eight-µm sections were prepared for ORO staining and plaque immune cell analysis. The accumulation of macrophages in aortic root lesions was determined by an anti-MAC-2 antibody (1:100 dilution) followed by Cy5-conjugated secondary antibody. Nuclei were visualized with DAPI. The aortic arch was cut, fixed in 4% paraformaldehyde (PFA) and embedded in paraffin. Four-µm sections containing the three branches (brachiocephalic, left common carotid, and left subclavian artery) were prepared and stained with hematoxylin/eosin (H&E) for vessel morphometry. Images were captured with a Leica DMi8 microscope and quantified using ImageJ.

The conditions of data set [5]: mouse, in vivo.

As to `CC[C@H](C)[C@H](NC(=O)[C@H](Cc1ccc(O)cc1)NC(=O)[C@H](CCCNC(=N)N)NC(=O)[C@H](CC(=O)O)NC(=O)CCCCCCCCCCCNC(=O)CCCCCNC(=O)[C@H](CCCCN)NC(=O)[C@H](CS)NC(=O)[C@H](CC(C)C)NC(=O)[C@H](Cc1ccccc1)NC(=O)[C@H](CC(N)=O)NC(=O)CNC(=O)[C@H](Cc1ccccc1)NC(=O)[C@H](Cc1ccc(O)cc1)NC(=O)[C@H](Cc1c[nH]c2ccccc12)NC(=O)[C@H](CC(N)=O)NC(=O)[C@H](C)NC(=O)[C@@H](NC(=O)[C@H](C)NC(=O)[C@@H](N)CC(=O)O)C(C)C)C(=O)N[C@@H](CS)C(=O)N[C@@H](CC(=O)O)C(=O)N[C@@H](CCCNC(=N)N)C(=O)N[C@@H](Cc1ccccc1)C(=O)N[C@@H](Cc1ccc(O)cc1)C(=O)N1CCC[C@H]1C(=O)N[C@@H](CC(N)=O)C(=O)N[C@@H](CC(=O)O)C(=O)N[C@@H](CC(C)C)C(=O)N[C@@H](Cc1c[nH]c2ccccc12)C(=O)N[C@H](C(N)=O)C(C)C` [msR4M-L1, CXCR4-ECL1[97–110]-6-Ahx-12-Ado-ECL2[182–196]], the “number of luminally adhering leukocytes” value in data set [1] (msR4M-L1 100 µg once daily for 3 days before vessel harvest, 5–6 carotid arteries per group) was “significantly reduced”. In addition, the “Fig. 5l, leukocyte adhesion in ex vivo mounted carotid arteries” value in data set [1] (msR4M-L1 group, individual values, n = 6) is 12 and 45 and 36 and 16 and 32. Further, in [2] (80 nM MIF, 400 nM msR4M-L1, LDL 25 µg/mL, without MIF 15.1%, MIF alone 8.99%, one of two experiments), the “LDLR cell surface level (Q3), MIF + msR4M-L1” value came out at 12.6%. In addition, in data set [2] (as E143, without MIF 39%, MIF alone […]), the “CXCR4 cell surface level (Q3), MIF + msR4M-L1” value amounted to 48.7%. In the data set with MonoMac-6 / HAoEC (1.5 dyn/cm^2, 16 nM MIF, 320 nM msR4M-L1), the “effect on MIF-induced monocyte adhesion under flow” value was “inhibited monocyte adhesion”. The “Fig. 5c, MIF-induced monocyte adhesion” value with MonoMac-6 / HAoEC (MIF + msR4M-L1, individual replicates, n = 4) is 206 and 207 and 188 and 291. Also, the “Fig. 5b, MIF-induced monocyte adhesion” value with MonoMac-6 / HAoEC (TNF + MIF + msR4M-L1, individual replicates, n = 3) was 105.71 and 99.43 and 83.71. In addition, the “effect on MIF-triggered CXCR4 reporter signal” value with human CXCR4 is given as “blocked the β-galactosidase reporter signal in a concentration-dependent manner”. The molecule further came in with a level at time molar in “in vivo” of 20 to 50 nM. Also, the “circulating inflammatory cytokine levels” value in [3] is on record as “marked reduction”. For the same molecule, the “inhibition of MIF-mediated DiI-LDL uptake” value in data set [4] is on record as “dose-dependently inhibited; also recorded: slightly better than that of ISO-1, but lower than that of NIH/IIID.9”. For the same molecule, in the data set with Apoe−/− mice on HFD (50 µg i.p. for 4.5 weeks), the “toxicity or side effects” value is reported as “No toxicity or side effects were noted”. Moreover, the “atherosclerotic lesion size in aortic arch” value with Apoe−/− mice on HFD (Apoe−/− mice, HFD 4.5 weeks, 50 µg (2.5 mg kg^−1) i.p. three times per week, HE, 7 vs 7 mice) is listed as “significantly decreased”. Also, in the data set on Apoe−/− mice on HFD (Fig. 6g, msR4M-L1-treated animals, per animal, n = 11), the “Lesion area (x10to3 µm2)” value was 184.774 x10to3 µm2 and 104.198 x10to3 µm2 and 151.257 x10to3 µm2 and 126.04 x10to3 µm2 and 45.213 x10to3 µm2 and 130.67 x10to3 µm2 and 89.727 x10to3 µm2 and 63.265 x10to3 µm2 and 177.705 x10to3 µm2 and 117.601 x10to3 µm2 and 70.989 x10to3 µm2. The “number of lesional macrophages, MAC-2 staining” value in the data set on Apoe−/− mice on HFD (as E123, 11 vs 12 mice) was “significantly decreased”. In addition, in the data set on Apoe−/− mice on HFD (as E123, ORO, 12 vs 12 mice), the “atherosclerotic lesion size in aortic root” value is recorded as “significantly decreased”. This molecule yielded a Body weight in [5] of 22.3 ± 0.2 g.
